Assay results taken from a melting point compilation (Tetko et al.).

Structure (SMILES)	melting point
Cc1ccc(N2CCC(Br)C2=O)cc1 (stereo not drawn)	83 to 85 °C
COC(=O)c1cccc(C(N)=NO)c1	102 to 104 °C
Nc1nc(-c2ccccc2OC(F)F)n[nH]1	188 to 190 °C
Nc1nsc(N2CCNCC2)n1	193 to 195 °C
Cc1nc(N)n[nH]1	142 to 144 °C
Cc1cc(C)cc(N(CCC#N)C(=O)CCl)c1	67 to 69 °C
Cc1cccc(N2CCN(CCN)CC2)c1C	60 to 62 °C
CN1C(=O)Cc2cc(S)ccc21	104 to 106 °C
Cc1ccc(-c2noc(N)n2)cc1	214 to 216 °C
COc1ccc(C(C)(C)C(=O)O)cc1OC	84 to 86 °C
Fc1ccc(-c2cc3ncnc(Cl)c3s2)cc1	202 to 206 °C
O=C(O)C1CCN(C(=O)c2ccc(C(F)(F)F)cc2)CC1	162 to 164 °C
CC(C)(N)c1noc(C(N)=O)n1	168 to 170 °C
O=C(O)CNC(=O)c1ccc(Oc2ccccc2)cc1	156 to 158 °C
FC(F)(F)c1nc(Cl)c2sccc2n1	95 to 97 °C
O=C(O)C(Oc1cccc(Cl)c1Cl)c1ccccc1 (stereo not drawn)	147 to 149 °C
NC(=C[N+](=O)[O-])N1CCOCC1	236 to 238 °C
O=C(O)c1cc2c([nH]c1=O)CCC2	273 to 275 °C
NC(=O)C1CCCC1N (stereo not drawn)	123 to 125 °C
COc1ccc(NC(=O)C(Cl)c2ccccc2)cc1 (stereo not drawn)	152 to 156 °C
O=C(O)C1CCN(S(=O)(=O)c2ccc3c(c2)OCCCO3)CC1	173 to 178 °C
O=c1[nH]c(S)nc2ccc(F)cc12	345 to 347 °C
Nc1nc(-c2cccc(Br)c2)cs1	121 to 125 °C

Structure (SMILES)	melting point
O=c1[nH]c(-c2ccc(Cl)cc2)co1	241 to 243 °C
O=C(O)C1CCc2cn[nH]c2C1 (stereo not drawn)	234 to 236 °C
O=C(O)C1C2C3CC4C5CC(C42)C1C53 (stereo not drawn)	101 to 103 °C
N#CCCCn1cc(C(=O)O)nn1	164 to 166 °C
O=S1(=O)CCC(Nc2ccccc2)C1 (stereo not drawn)	119 to 123 °C
CC(C)c1cc(Br)cc([N+](=O)[O-])c1N	39 to 41 °C
O=C1C=CC(=O)N1CCc1ccc([N+](=O)[O-])cc1	61 to 63 °C
Nc1cc(S(=O)(=O)Nc2ccccc2Cl)ccc1O	195 to 197 °C
O=C(O)C(=Cc1ccco1)NC(=O)c1ccccc1	209 to 211 °C
Nc1nc(-c2ccccc2OC(F)F)cs1	73 to 75 °C
N#Cc1ccc(S(N)(=O)=O)cc1C(F)(F)F	195 to 197 °C
O=C(O)c1ccc2[nH]c(-c3ccc(Cl)cc3)nc2c1	319 to 321 °C
Cc1nc(Cl)c2cc(-c3ccccc3)sc2n1	114 to 116 °C
CC(C)(C)c1noc(N)n1	192 to 194 °C
COC(=O)c1cc(C(=O)OC)cc(S(=O)(=O)Cl)c1	105 to 107 °C
CC(C)(C)OC(=O)Nc1ccsc1Br	69 to 71 °C
Nc1nc(-c2ccc3c(c2)COC3)cs1	204 to 206 °C
COc1ccc(C(=O)O)cc1S(=O)(=O)N1CCCC1	218 to 220 °C
Cc1[nH]oc(=N)c1Br	67 to 69 °C
CC(Cl)c1nnc(-c2ccc([N+](=O)[O-])cc2)o1 (stereo not drawn)	161 to 163 °C
O=C(O)C1CCCN1S(=O)(=O)c1ccc(Cl)s1 (stereo not drawn)	44 to 46 °C
Cc1c[nH]c(=O)n1-c1cccc(C#N)c1	189 to 191 °C
COc1cc(I)c(C(=O)O)cc1OC	200 to 202 °C

Continued, values first:

melting point	Structure (SMILES)
133 to 135 °C	CN(C)c1ccc(C(=N)N)c(F)c1
93 to 95 °C	CC(Oc1ccc(C(C)(C)C)cc1)C(=O)O (stereo not drawn)
95 to 97 °C	CC1COc2ccccc2C1O (stereo not drawn)
53 to 55 °C	Cc1nn(Cc2ccccc2)c(Cl)c1CCl
69 to 71 °C	COc1ccccc1C(=O)NCC(=O)O
177 to 181 °C	CC(=O)c1cc(C(=O)O)n(C)c1
137 to 139 °C	CC(C)c1cc(C(=O)O)nn1-c1ccccc1
136 to 138 °C	CCNC(=O)c1ccc(Cl)nc1
272 to 274 °C	COc1ccc(OC)c2c(O)c(C(=O)O)cnc12
48 to 50 °C	N#Cc1ccc(F)c(CO)c1
185 to 187 °C	Cn1c(N)c(C(=O)CCl)c(=O)n(C)c1=O
42 to 44 °C	Nc1ccc(OCc2ccccc2)nc1
98 to 100 °C	N#CC(N)c1cnn(-c2ccccc2)c1 (stereo not drawn)
117 to 119 °C	CCOC(=O)C(O)(CC#N)c1nccn1C (stereo not drawn)
51 to 53 °C	COC(=O)c1ccc(S(=O)(=O)Cl)c(C)c1
208 to 210 °C	CCc1ccc(-c2nn(-c3ccccc3)cc2C(=O)O)cc1
114 to 116 °C	CCN(CC)C(=O)Cn1cccc(C(=O)O)c1=O
57 to 59 °C	OC1(CCOc2ccccc2)CC1
238 to 240 °C	O=[N+]([O-])c1cccc(-c2nccs2)c1

melting point	Structure (SMILES)
204 to 206 °C	NC(=O)c1cnc(Cl)c(Cl)c1
100 to 102 °C	CS(=O)(=O)c1ccc(OCCBr)cc1
117 to 119 °C	Sc1nnc(-c2cccnc2)n1Cc1ccco1
157 to 159 °C	Nc1ccc(C(=O)NCC(F)(F)F)cc1
128 to 130 °C	COC(=O)c1ccc(NC(=O)CCCCl)cc1
46 to 48 °C	Cc1cc(Br)cc(C=O)c1OC(F)F
128 to 130 °C	O=C(CCl)NC(=O)NCc1ccco1
120 to 122 °C	Nc1ccn(Cc2cccc3cccnc23)n1
229 to 231 °C	Nc1nnc2ccccn12
43 to 45 °C	COc1ncc(Cl)c(Cl)n1
104 to 106 °C	Cc1ccc(-c2n[nH]cc2Br)cc1
275 to 277 °C	CC(C)n1ncc2c(C(=O)O)cc(-c3ccco3)nc21
82 to 84 °C	CC(=O)c1cccc(N2CCOC2=O)c1
137 to 139 °C	COc1cc(C=O)ccc1OCC(=O)c1ccc(Cl)c(Cl)c1
243 to 245 °C	NC(=O)c1ccc(S(N)(=O)=O)cc1
101 to 103 °C	O=C(O)C1COc2ccccc21 (stereo not drawn)
70 to 72 °C	Cc1cc(N)nn1-c1ccc(F)cc1
194 to 196 °C	O=C(O)Cc1csc(NC(=O)c2cccs2)n1
78 to 80 °C	CC(C)n1ncc2cc(C=O)c(Cl)nc21

melting point	Structure (SMILES)
142 to 144 °C	O=C(O)c1ccc(Cl)cc1-n1cccc1
240 to 242 °C	O=C(O)c1c[nH]c(-c2ccccc2)n1
74 to 76 °C	CC(O)CN1C(=O)C=CC1=O (stereo not drawn)
103 to 105 °C	C=Cn1ccnc1CO
138 to 140 °C	N#Cc1ccc2cc(Br)c(Br)cc2c1
187 to 189 °C	CN1CC(=O)N(Cc2ccc(C(N)=O)cc2N)C1=O
248 to 250 °C	O=C(O)c1csc(-c2ccc(Br)s2)n1
239 to 241 °C	O=C(O)Cn1cc(Br)ccc1=O
269 to 271 °C	Oc1nnc2c(Cl)cccn12
119 to 121 °C	Nc1ccccc1CC(=O)O
179 to 181 °C	Nn1c(S)nnc1Cc1ccccc1
176 to 178 °C	NC(NO)=C1C=CC=NC1=O
75 to 77 °C	O=C(NC1CCCC1)c1ccccc1O
158 to 160 °C	O=C(O)c1ccc(OCC(F)F)nc1
132 to 134 °C	Nc1ccccc1-c1ncc[nH]1
99 to 101 °C	CNc1scnc1C(=O)O
181 to 183 °C	COc1ccccc1-c1nnc(SCC(=O)O)n1N
146 to 148 °C	Nc1nc2ccccc2n1CCCc1ccccc1
231 to 233 °C	NS(=O)(=O)c1ccc(C(=O)O)cc1Cl
